Assay results reported in US4751215A, “Process for increasing the sexual activity of birds and useful domestic mammals and for preparing spermatozoa suitable to their propagation” (INNOFINANCE Altalanos Innovacios Penzintezet, priority 1985, dated 1988).

What was measured:
Format in all cases: in vivo
[1] = tested on: blood plasma testosterone level; test: Blood plasma testosterone level of ganders (Table 6); conditions: for Testosterone: Treated (n = 10)
Experimental: (§1) Ganders kept under large-scale conditions and propagated in a natural way were treated with 0.5 μg/kg of D-Phe^6,desGly^10 -GnRH ethylamide analogue every 2 days, altogether 3 times. […] This manifested itself in the rise of the copulation activity (Table 6).

ganders [2] = test: Copulation activity / libido of ganders (Table 6); conditions: for No. of daily copulations: Treated (n = 10)
Experimental: as §1

ganders [3] = test: Sperm production and sperm quality of ganders kept under natural conditions (Table 7)
Experimental: "Hungarian" and "Landes" ganders kept under natural conditions and divided to small groups were treated with 0.5 μg/kg of D-Phe^6,desGly^10 -GnRH ethylamide analogue every 2 days, altogether 3 times.

male turkeys = test: Effect of gonadoliberin analogues on the sperm production of male turkeys (Table 5)
Excerpt: In a further experiment, the sperm production of male turkeys was raised by administering the following four compounds: […]

male angora rabbits = test: Enhancement of the sperm production of male rabbits; conditions: 3 μg every 2 days, 3 times
Experimental: In this experiment male angora rabbits showing a low libido were used from which no sperm could be obtained. The motility of the cells in their sperm was lower than 75%; thus, these animals could not be used for propagating. Of these animals 234 were treated with 3 μg of D-Phe^6,desGly^10 -GnRH ethylamide analogue every 2 days, altogether 3 times. […] These effects could be observed for several weeks; thus, the amount of the sperm usable for artificial insemination increased to its 2.5-fold value.

[4] = 0.5 μg/kg every 2 days, 3 times
[5] = "Hungarian" ganders, sampling February 7
[6] = "Hungarian" ganders, sampling February 14
[7] = "Hungarian" ganders, sampling February 21
[8] = "Hungarian" ganders, sampling February 28
[9] = "Hungarian" ganders, sampling January 15 (before treatment)
[10] = "Hungarian" ganders, sampling January 31
[11] = "Hungarian" ganders, sampling March 7
[12] = "Hungarian" ganders, sampling March 12
[13] = "Landes" ganders, sampling February 7
[14] = "Landes" ganders, sampling February 14
[15] = "Landes" ganders, sampling February 21
[16] = "Landes" ganders, sampling February 28
[17] = "Landes" ganders, sampling January 15 (before treatment)
[18] = "Landes" ganders, sampling January 31
[19] = "Landes" ganders, sampling March 7
[20] = "Landes" ganders, sampling March 12
[21] = at the beginning of the experiment

CCNC(=O)[C@@H]1CCCN1C(=O)[C@H](CCCNC(=N)N)NC(=O)[C@H](CC(C)C)NC(=O)[C@@H](Cc1ccccc1)NC(=O)[C@H](Cc1ccc(O)cc1)NC(=O)[C@H](CO)NC(=O)[C@H](Cc1c[nH]c2ccccc12)NC(=O)[C@H](Cc1c[nH]cn1)NC(=O)[C@@H]1CCC(=O)N1 [Compound "C", D-Phe^6,desGly^10 -GnRH ethylamide]
blood plasma testosterone level (in words) [1, 4]: significantly raised | Testosterone ([1]; sampling October 1): 390 ± 78 pg/mL | Testosterone ([1]; sampling September 3): 378 ± 142 pg/mL | Testosterone ([1]; sampling September 10): 470 ± 133 pg/mL | Testosterone ([1]; sampling September 17): 879 ± 145 pg/mL | Testosterone ([1]; sampling September 24): 695 ± 125 pg/mL | libido of the animals (ganders [2]; [4]): significantly raised | duration of the high copulation activity (ganders [2]; 0.5 μg/kg, ganders): maintained at this high level for one additional month | No. of daily copulations (ganders [2]; October 1): 10 | No. of daily copulations (ganders [2]; September 3): 9 | No. of daily copulations (ganders [2]; September 10): 7 | No. of daily copulations (ganders [2]; September 17): 12 | No. of daily copulations (ganders [2]; September 24): 13 | duration of the sperm production increase (ganders [3]; 0.5 μg/kg every 2 days, 3 times, "Hungarian" and "Landes" ganders): lasting for about one month and a half | Sperm (ganders [3]; "Hungarian" ganders, 0.5 μg/kg on January 28, 30, February 1, sampling January 15 (before treatment)): 0.19 mL | Motility of the spermatozoa (ganders [3]; [5]): good | No. of spermatozoa (ganders [3]; [5]): 3.2 10^6 /mm^3 | Ratio of dead + deficient cells (ganders [3]; [5]): 8% | Sperm (ganders [3]; [5]): 0.48 mL | Motility of the spermatozoa (ganders [3]; [6]): good | No. of spermatozoa (ganders [3]; [6]): 3.0 10^6 /mm^3 | Ratio of dead + deficient cells (ganders [3]; [6]): 10% | Sperm (ganders [3]; [6]): 0.56 mL | Motility of the spermatozoa (ganders [3]; [7]): good | No. of spermatozoa (ganders [3]; [7]): 2.9 10^6 /mm^3 | Ratio of dead + deficient cells (ganders [3]; [7]): 12% | Sperm (ganders [3]; [7]): 0.30 mL | Motility of the spermatozoa (ganders [3]; [8]): good | No. of spermatozoa (ganders [3]; [8]): 2.9 10^6 /mm^3 | Ratio of dead + deficient cells (ganders [3]; [8]): 14% | Sperm (ganders [3]; [8]): 0.23 mL | Motility of the spermatozoa (ganders [3]; [9]): weak | No. of spermatozoa (ganders [3]; [9]): 2.1 10^6 /mm^3 | Ratio of dead + deficient cells (ganders [3]; [9]): 19% | Motility of the spermatozoa (ganders [3]; [10]): weak | No. of spermatozoa (ganders [3]; [10]): 2.3 10^6 /mm^3 | Ratio of dead + deficient cells (ganders [3]; [10]): 20% | Sperm (ganders [3]; [10]): 0.25 mL | Motility of the spermatozoa (ganders [3]; [11]): good | No. of spermatozoa (ganders [3]; [11]): 3.1 10^6 /mm^3 | Ratio of dead + deficient cells (ganders [3]; [11]): 17% | Sperm (ganders [3]; [11]): 0.44 mL | Motility of the spermatozoa (ganders [3]; [12]): good | No. of spermatozoa (ganders [3]; [12]): 3.0 10^6 /mm^3 | Ratio of dead + deficient cells (ganders [3]; [12]): 14% | Sperm (ganders [3]; [12]): 0.33 mL | Sperm (ganders [3]; "Landes" ganders, 0.5 μg/kg on January 28, 30, February 1, sampling January 15 (before treatment)): 0.19 mL | Motility of the spermatozoa (ganders [3]; [13]): medium | No. of spermatozoa (ganders [3]; [13]): 2.2 10^6 /mm^3 | Ratio of dead + deficient cells (ganders [3]; [13]): 19% | Sperm (ganders [3]; [13]): 0.32 mL | Motility of the spermatozoa (ganders [3]; [14]): good | No. of spermatozoa (ganders [3]; [14]): 2.0 10^6 /mm^3 | Ratio of dead + deficient cells (ganders [3]; [14]): 16% | Sperm (ganders [3]; [14]): 0.45 mL | Motility of the spermatozoa (ganders [3]; [15]): medium | No. of spermatozoa (ganders [3]; [15]): 2.0 10^6 /mm^3 | Ratio of dead + deficient cells (ganders [3]; [15]): 19% | Sperm (ganders [3]; [15]): 0.38 mL | Motility of the spermatozoa (ganders [3]; [16]): medium | No. of spermatozoa (ganders [3]; [16]): 2.2 10^6 /mm^3 | Ratio of dead + deficient cells (ganders [3]; [16]): 17% | Sperm (ganders [3]; [16]): 0.35 mL | Motility of the spermatozoa (ganders [3]; [17]): weak | No. of spermatozoa (ganders [3]; [17]): 1.9 10^6 /mm^3 | Ratio of dead + deficient cells (ganders [3]; [17]): 23% | Motility of the spermatozoa (ganders [3]; [18]): medium | No. of spermatozoa (ganders [3]; [18]): 2.0 10^6 /mm^3 | Ratio of dead + deficient cells (ganders [3]; [18]): 23% | Sperm (ganders [3]; [18]): 0.43 mL | Motility of the spermatozoa (ganders [3]; [19]): good | No. of spermatozoa (ganders [3]; [19]): 1.9 10^6 /mm^3 | Ratio of dead + deficient cells (ganders [3]; [19]): 20% | Sperm (ganders [3]; [19]): 0.18 mL | Motility of the spermatozoa (ganders [3]; [20]): medium | No. of spermatozoa (ganders [3]; [20]): 1.8 10^6 /mm^3 | Ratio of dead + deficient cells (ganders [3]; [20]): 19% | Sperm (ganders [3]; [20]): 0.20 mL | Sperm production (male turkeys; after 30 days): 0.30 ml/animal | Sperm production (male turkeys; after 60 days): 0.32 ml/animal | Sperm production (male turkeys; after 90 days): 0.34 ml/animal | Sperm production (male turkeys; after 120 days): 0.30 ml/animal | Sperm production (male turkeys; [21]): 0.21 ml/animal | increase of the amount of sperm usable for artificial insemination (male angora rabbits): 2.5 fold | motility of spermatozoa in excess of the mean value (76%) of sperm from good males (male angora rabbits; in average, within 4 weeks after the treatment): 10% | libido of the animals (male angora rabbits; low-libido male angora rabbits, within 4 weeks after the treatment): significantly increased | sperm production relative to the average of sperm obtained from good males useful for breeding (male angora rabbits; weighed in ml, within 4 weeks after the treatment): 80%

(Asp-α-anilide)^6,desGly^10 -GnRH [Compound "B"]
Sperm production (male turkeys; after 30 days): 0.21 ml/animal | Sperm production (male turkeys; after 60 days): 0.28 ml/animal | Sperm production (male turkeys; [21]): 0.18 ml/animal
